Values quoted from earlier work as cited in paper PMC12332767 (RSC Chemical Biology, 2025).

Insoluble in chloroform (HI alone): 98.5%
Soluble in chloroform in interaction with PC (HI in interaction with PC): 74%
Substance: heparin [HI]
